Entries after “also recorded” stand apart in the source; their conditions may differ.

For one assay, the system named is transgenic CD4^+ T cells. Nature of the assay: Selection of transgenic CD4^+ T cells in TCR^TgTCRα^−→H-2M^−Ii^− radiation chimeras. The conditions noted are these: mouse, in vivo. The text has this:
Also disclosed by the inventors is the development of transgenic CD4^+ T cells in chimeras made by reconstituting H-2M^−Ii^− mice with the bone marrow from TCR^TgTCRα^− mice (TCR^TgTCRα^−→H-2M^−Ii^− chimeras). The development of thymocytes in such chimeras is arrested at the CD4^+CD8^+ stage despite the presence of selecting wild type A^b/self-peptide complexes on bone marrow-derived dendritic cells. […] This in vivo model relates that, in contrast to the reaggregation cultures (Yastumo et al., 2000), radioresistant thymic epithelial cells are required to provide an agonist signal that induces thymocyte differentiation towards CD4^+ lineage in vivo.

Assay [1] concerns transgenic CD4^+ thymocytes. Nature of the assay: Neonatal thymic organ cultures (NTOC) from peptide-injected TgTCRα^−H-2M^−Ii^− neonates. Type of assay: cell-based, mouse. The conditions noted are these: single i.p. injection just after birth, thymus harvested 24 hours later. The text has this: (§1) The TgTCRα^−H-2M^−Ii^− system enables the visualization of thymocyte positive selection in real time and in the native intrathymic environment. An in vitro system was setup where the transgenic thymocytes undergo efficient positive selection and commit to the CD4^+ lineage. […] These observations agreed with the previous reports in which CD8^+, but not CD4+, T cells could be positively selected by the specific peptide in FTOCs (Kenty et al., 1998; Liblau et al, 1996). Therefore, neonatal thymic organ cultures (NTOC) were established from TgTCRα^−-H-2M^−Ii^− neonates. The neonates received a single i.p. injection of the PCC50V54A peptide just after birth and were sacrificed 24 hours later when their thymuses were harvested.

A further assay has as its system peripheral CD4^+ T cells. Nature of the assay: Peptide injection into thymectomized TCR^TgTCRα^−H2-M^−Ii^− mice. Type of assay: in vivo, mouse. The conditions noted are these: two weeks after injection. The text has this: Since the selecting peptide is an agonist, in a specific embodiment of the present invention the observed phenomenon results from the expansion of a small number of peripheral transgenic CD4^+ T cells rather than from induced positive selection. To test this possibility, two types of experiments have been performed. In the first experiment, the PCC TgTCRα^−H-2M^−Ii^− mice were thymectomized and then injected with the PCC50V54A peptide. Two weeks after injection, these mice were sacrificed and the number of peripheral CD4^+ T cells was counted. […] After 10 days, recipient mice were sacrificed and the presence of transgenic CD4^+ T cells in the transplanted thymus and lymph nodes was determined by FACS analysis. […]
Since the selecting peptide is an agonist, one could argue that the observed phenomenon results from the expansion of a small number of peripheral transgenic CD4^+ T cells rather than from induced positive selection (Martin & Bevan, 1997). […] Two weeks after injection, the mice were sacrificed and the number of peripheral CD4^+ T cells was counted. […] After 10 days, recipient mice were sacrificed and the presence of transgenic CD4^+ T cells in the transplanted thymus and host lymph nodes was determined by FACS analysis. […]

The subject of a further assay is B16 melanoma cells. Nature of the assay: Protection against B16 melanoma transfected with A^bPCC50V54A-YFP in TCR^Tgα^−H-2M^−Ii^− mice. Type of assay: in vivo, mouse. On the procedure: Protection of a mouse melanoma model. Peptide selected CD4^+ T cells are shown to be functional and protect mice from melanoma tumor cells. To determine if peptide selected T lymphocytes are able to mount an effective immune response in vivo the ability of peptide-selected CD4^+ cells to protect mice from melanoma was assessed. Melanoma B16-F1 was transfected with constructs encoding the A^bβPCC50V54A chain tagged with yellow fluorescent protein (YFP) and A^bα chain. These transfectants weakly stimulated TCR^Tgα^− CD4^+ cells from wild type mice. TCR^Tgα^−H2-M^−Ii^− mice received subcutaneous injection of B16 melanoma transfectants. At the same time, half of these mice also received selecting agonist peptide. After 12 days, animals were sacrificed, and the phenotype of tumor cells and peripheral CD4^+ T cells in draining lymph nodes was examined. As shown in FIGS. 16A-E, only mice that received selecting peptide accumulated peripheral CD4^+ T cells. These cells responded to tumor as assessed by upregulation of CD69 and downregulation of CD62L. Most importantly, tumors in mice that received a selecting peptide were much smaller (4-6 times) and were composed of melanoma cells without surface expression of antigenic complex (only about ¼ of cells were YFP^+ compared to more then ¾ in mice not treated with the selecting peptide). […]

For a further assay, the system named is transgenic thymocytes. Nature of the assay: Fetal thymic organ cultures (FTOC) from TgTCRα^−H-2M^−Ii^− mice with peptide. Type of assay: cell-based, mouse. The settings on record: continuous delivery of peptide at low concentration.
Source text: as §1

Take “AEGFSYTVANKAKGIT [PCC50V54A, analog of pigeon cytochrome C peptide PCC(43-58)]”: the “appearance / positive selection of mature CD4^+ T cells in chimeras” value in the assay on transgenic CD4^+ T cells is reported as “appeared only after injection”. The “duration of continuous positive selection of CD4^+ thymocytes in NTOC” value in assay [1] was 4 to 5 days. Also, the “total number of lymph node cells” value with peripheral CD4^+ T cells (50 μg) is reported as 11.5×10^6±1.6. In addition, the “number of peripheral CD4 transgenic T cells” value with peripheral CD4^+ T cells (versus non-injected thymectomized controls) is “very low and did not increase; also recorded: very few CD4^+ peripheral T cells”. Besides, the “tumor mass / size relative to mice without selecting peptide” value in the assay on B16 melanoma cells (20 μg i.p.) was 4-6 times smaller. For the same sequence, the “expression of A^bPCC50V54A-YFP on remaining tumor cells” value with B16 melanoma cells (more then ¾ YFP^+ in mice not treated) is “do not express A^bPCC50V54A-YFP”. For the same sequence, the “lineage commitment of thymocytes in FTOC” value in the assay with transgenic thymocytes is “the majority of thymocytes committed to the CD8 lineage”.
